Test results: US10947252B2, “Inhibitors of KEAP1-Nrf2 protein-protein interaction” (Janssen Pharmaceutica NV, priority 2018, dated 2021)

test system: Glo-Response ARE-luc2P HEK293 cell line; assay: ARE luciferase reporter cell-based assay; conditions: Homo sapiens, HEK293, 24 h, average of results obtained;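 note: luciferase signal tracks Nrf2 activation of the ARE once compounds disrupt KEAP1-Nrf2 binding, read with One-Glo reagent, DMSO serving as low control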

SMILES | EC50 [nM]
CCn1nnc2c(C)c([C@@H](CC(=O)O)c3ccc(C)c(CN4C[C@H]5CCCN5c5ccccc5S4(=O)=O)c3)ccc21 (single isomer, unassigned) [Example 153, (*S)-3-(3-(((R)-5,5-Dioxido-7a,8,9,10-tetrahydrobenzo[f]pyrrolo[2,1-d][1,2,5]thiadiazepin-6(7H)-yl)methyl)-4-methylphenyl)-3-(1-ethyl-4-methyl-1H-benzo[d][1,2,3]triazol-5-yl)propanoic Acid] | 3
CCn1nnc2c(C)c([C@@H](CC(=O)O)c3ccc(C)c(CN4C[C@@H]5CCCCN5c5ncccc5S4(=O)=O)c3)ccc21 (single isomer, unassigned) [Example 142, (*S)-3-(3-(((*S)-5,5-Dioxido-7,7a,8,9,10,11-hexahydro-6H-dipyrido[2,1-d:2′,3′-f][1,2,5]thiadiazepin-6-yl)methyl)-4-methylphenyl)-3-(1-ethyl-4-methyl-1H-benzo[d][1,2,3]triazol-5-yl)propanoic Acid] | 1.1
Cc1cnc2c(c1)S(=O)(=O)N(Cc1cc([C@H](CC(=O)O)c3ccn4c(C(F)F)nnc4c3C)ccc1C)C[C@@H]1CCCCN21 (stereo in doubt) [Example 500, (*S)-3-(3-(Difluoromethyl)-8-methyl-[1,2,4]triazolo[4,3-a]pyridin-7-yl)-3-(4-methyl-3-(((*S)-3-methyl-5,5-dioxido-7,7a,8,9,10,11-hexahydro-6H-dipyrido[2,1-d:2′,3′-f][1,2,5]thiadiazepin-6-yl)methyl)phenyl)propanoic Acid] | 6.55
Cc1ccc([C@H](CC(=O)O)c2ccn3c(C(F)(F)F)nnc3c2C)cc1CN1C[C@H]2CCCCN2c2ncc(F)cc2S1(=O)=O (relative stereo) [Example 310, (*S)-3-(3-(((*R)-3-fluoro-5,5-dioxido-7,7a,8,9,10,11-hexahydro-6H-dipyrido[2,1-d:2′,3′-f][1,2,5]thiadiazepin-6-yl)methyl)-4-methylphenyl)-3-(8-methyl-3-(trifluoromethyl)-[1,2,4]triazolo[4,3-a]pyridin-7-yl)propanoic Acid] | 3
CCn1nnc2c(C)c([C@@H](CC(=O)O)c3ccc(C)c(CN4C[C@H]5COCCN5c5ncccc5S4(=O)=O)c3)ccc21 (single isomer, unassigned) [Example 136, (*S)-3-(3-(((*S)-5,5-Dioxido-7a,8,10,11-tetrahydro-[1,4]oxazino[3,4-d]pyrido[2,3-f][1,2,5]thiadiazepin-6(7H)-yl)methyl)-4-methylphenyl)-3-(1-ethyl-4-methyl-1H-benzo[d][1,2,3]triazol-5-yl)propanoic Acid] | 8.3
Cc1ccc([C@H](CC(=O)O)c2ccn3c(C(F)(F)F)nnc3c2C)cc1CN1C[C@@H]2CCCCN2c2ncc(C(F)(F)F)cc2S1(=O)=O (relative stereo) [Example 198, (*S)-3-(3-(((*S)-5,5-Dioxido-3-(trifluoromethyl)-7,7a,8,9,10,11-hexahydro-6H-dipyrido[2,1-d:2′,3′-f][1,2,5]thiadiazepin-6-yl)methyl)-4-methylphenyl)-3-(8-methyl-3-(trifluoromethyl)-[1,2,4]triazolo[4,3-a]pyridin-7-yl)propanoic Acid] | 5.3
Cc1ccc([C@H](CC(=O)O)c2ccn3c(C(F)F)nnc3c2C)cc1CN1C[C@@H]2CCCCN2c2ncc(C#N)cc2S1(=O)=O (relative stereo) [Example 31, (*S)-3-(3-(((*S)-3-Cyano-5,5-dioxido-7,7a,8,9,10,11-hexahydro-6H-dipyrido[2,1-d:2′,3′-f][1,2,5]thiadiazepin-6-yl)methyl)-4-methylphenyl)-3-(3-(difluoromethyl)-8-methyl-[1,2,4]triazolo[4,3-a]pyridin-7-yl)propanoic Acid] | 9.9
CCn1nnc2c(C)c([C@H](CC(=O)O)c3ccc(C)c(CN4CC(C)(C)Oc5ccccc5S4(=O)=O)c3)ccc21 (single isomer, unassigned) [Example 159, (*R)-3-(3-((4,4-Dimethyl-1,1-dioxido-3,4-dihydro-2H-benzo[b][1,4,5]oxathiazepin-2-yl)methyl)-4-methylphenyl)-3-(1-ethyl-4-methyl-1H-benzo[d][1,2,3]triazol-5-yl)propanoic Acid] | 34
Cc1ccc([C@H](c2cc(OC(F)F)c3c(c2)nnn3C)C(C)(C)C(=O)O)cc1CN1CC2(CCOCC2)Oc2ncccc2S1(=O)=O (single isomer, unassigned) [Example 427, (R*)-3-(7-(difluoromethoxy)-1-methyl-1H-benzo[d][1,2,3]triazol-5-yl)-3-(3-((1′,1′-dioxido-2,3,5,6-tetrahydrospiro[pyran-4,4′-pyrido[2,3-b][1,4,5]oxathiazepin]-2′(3′H)-yl)methyl)-4-methylphenyl)-2,2-dimethylpropanoic Acid] | 293
CCn1nnc2c(C)c(C(CC(=O)O)c3ccc(C)c(CN4CC(C)(C)Oc5ccccc5S4(=O)=O)c3)ccc21 (racemic) [Example 151, (R/S)-3-(3-((4,4-Dimethyl-1,1-dioxido-3,4-dihydro-2H-benzo[b][1,4,5]oxathiazepin-2-yl)methyl)-4-methylphenyl)-3-(1-ethyl-4-methyl-1H-benzo[d][1,2,3]triazol-5-yl)propanoic Acid] | 10
Cc1ccc([C@H](CC(=O)O)c2ccn3c(C(F)(F)F)nnc3c2C)cc1CN1CC2(CC2)Oc2ccc(F)cc2S1(=O)=O (single isomer, unassigned) [Example 98, (*S)-3-(3-((8-Fluoro-1,1-dioxidospiro[benzo[b][1,4,5]oxathiazepin]-4,1′-cyclopropan]-2(3H)-yl)methyl)-4-methylphenyl)-3-(8-methyl-3-(trifluoromethyl)-[1,2,4]triazolo[4,3-a]pyridin-7-yl)propanoic Acid] | 16
Cc1ncc(C(c2ccn3c(C(F)(F)F)nnc3c2C)C(C)(C)C(=O)O)cc1CN1CC2(CCOCC2)Oc2ncccc2S1(=O)=O (racemic) [Example 569, (R/S)-3-(5-((1′,1′-Dioxido-2,3,5,6-tetrahydrospiro[pyran-4,4′-pyrido[2,3-b][1,4,5]oxathiazepin]-2′(3′H)-yl)methyl)-6-methylpyridin-3-yl)-2,2-dimethyl-3-(8-methyl-3-(trifluoromethyl)-[1,2,4]triazolo[4,3-a]pyridin-7-yl)propanoic Acid] | 1370
CCn1nnc2c(C)c([C@@H](CC(=O)O)c3ccc(C)c(CN4C[C@H]5CCCCN5c5ncccc5S4(=O)=O)c3)ccc21 (single isomer, unassigned) [Example 145, (*S)-3-(3-(((*R)-5,5-Dioxido-7,7a,8,9,10,11-hexahydro-6H-dipyrido[2,1-d:2′,3′-f][1,2,5]thiadiazepin-6-yl)methyl)-4-methylphenyl)-3-(1-ethyl-4-methyl-1H-benzo[d][1,2,3]triazol-5-yl)propanoic Acid] | 1.1
Cc1cnc2c(c1)S(=O)(=O)N(Cc1cc([C@H](CC(=O)O)c3ccn4c(C(F)F)nnc4c3C)ccc1C)C[C@H]1CCCCN21 (stereo in doubt) [Example 503, (*S)-3-(3-(Difluoromethyl)-8-methyl-[1,2,4]triazolo[4,3-a]pyridin-7-yl)-3-(4-methyl-3-(((*R)-3-methyl-5,5-dioxido-7,7a,8,9,10,11-hexahydro-6H-dipyrido[2,1-d:2′,3′-f][1,2,5]thiadiazepin-6-yl)methyl)phenyl)propanoic Acid] | 2.58
